# Columns and labels:
# [1] = HPLC test of drug stability to curing light in coating composition components
# Experimental: HPLC tests were performed to assess the effects of various components of the coating composition on drug stability. HPLC analysis was run on the starting 50 μg/ml drug solution as a control. HPLC parameters were as follows: Channel A=>35 mM sodium phosphate pH=7.5 w/1 v % TEA; Channel B=>acetonitrile; 0-50% B 0-10 min, 50% B 10-13 min, 50-0% B 13-15 min, 0% B 6 min post time; 20 μl injections; 1 ml/min; 30° C.; 335 nm. […] Samples tested included: (1) Solvent+Drug; (2) Solvent+Photoinitiator (PI)+Drug; and (3) Solvent+Monomer Component+PI+Drug. […] The Solvent+PI+Drug (Sample 2) samples were prepared as follows: 1% wt/wt IrgaCure® 2959 was added to the 50 μg/ml drug solution solutions and cured according to the parameters described for Formulation 5 in Table 2. The Solvent+Monomer Component+PI+Drug+Drug (Sample 3) were prepared as follows: ˜3 ml Formulation 5 (Table 2) inspired solution with exception of using the 50 μg/ml drug solution and 20 wt % comonomer as the solvent was created and exposed to cure parameters detailed for Formulation 5 (Table 2) followed by HPLC analysis upon blending 1:1 with methanol, to terminate polymerization reaction/free-radicals. Note: polymerization of small volumes of Formulation 5 results in evaporation of the acetone solvent, thereby concentrating the monomers. […] FIG. 5A depicts HPLC chromatograms from the Sample 1 (dark gray line) and Sample 2 (light gray line) without exposure to light. […] FIG. 5B depicts chromatograms from the Sample 1 samples without light exposure and with light exposure. […] FIG. 5C depicts chromatograms from Sample 2 without light exposure and with light exposure. […] FIG. 5D depicts chromatograms from Sample 1 and Sample 3 after exposure to light.
# [2] = HPLC of methanol extracts: drug loading of coated ePTFE hernia mesh; assay type: physicochemical; details: soak in 10 mg/ml of each drug in methanol, ~17 hours, 4° C
# Experimental: Specimens were then removed from drug solution and dried in air. Following air-drying, specimens were rinsed in either methanol) or water. For the methanol rinse, specimens were suspended using forceps and agitated by hand in two consecutive 15 ml methanol rinses for 15 seconds, then allowed to air dry. For the water rinse, specimens were transferred to 10 ml of deionized water in conical tubes and aggressively vortexed for 2 minutes. Specimens were then allowed to air dry. The above steps resulting in the following four conditions: (a) 1 coat—water rinse; (b) 3 coats—water rinse; (c) 1 coat—methanol rinse; and (d) 3 coat—methanol rinse.
# Dried specimens were individually extracted in 1 ml of methanol at 4° C. for 64 or 76 hours. 20 μl of each extract were run on HPLC to assess the effects of rinse method and number of coating cycles on drug loading of the coatings. HPLC conditions were as follows: 30° C.; 250×3 mm C-18 with 5 μm packing; 280 nm absorbance; Channel A—35 mM Na2HPO4 with 1 vol % triethylamine, pH=8.1 w/phosphoric acid; Channel B—acetonitrile/Running parameters at 1 ml/min: (i) 0-10 minutes—gradient 0-50 vol % Channel B; (ii) 10-20 minutes—50 vol % Channel B; (iii) 20-25 minutes—20-0 vol % Channel B.
compound,measurement,setting,value
CO[C@H]1/C=C/O[C@@]2(C)Oc3c(C)c(O)c4c(O)c(c(/C=N/N5CCN(C)CC5)c(O)c4c3C2=O)NC(=O)/C(C)=C\C=C\[C@H](C)[C@H](O)[C@@H](C)[C@@H](O)[C@@H](C)[C@H](OC(C)=O)[C@@H]1C [rifampin],drug stability (HPLC peaks),"[1]; 50 μg/ml in acetone, with or without photoinitiator, without exposure to light, FIG. 5A",stable
same,drug stability (HPLC peaks),"[1]; Sample 1, solvent alone, with light exposure, FIG. 5B",degraded by light exposure
same,drug stability (HPLC peaks),"[1]; Sample 2, solvent + 1% wt/wt IrgaCure 2959, with light exposure, FIG. 5C",did not protect the drugs from light-induced degradation
same,absorption of drug into polymerized coating,[2],absorbed into the methacrylate coating matrix
